Source: ChEMBL document CHEMBL1201862, “PubChem BioAssay data set” (2004)
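Method: 48-hour compound exposure of cells in 96-well plates, five concentrations, linear interpolation of endpoints. GI50 = concentration required for 50% inhibition of growth.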 The source made the active and inactive calls. Cut-off read from the data, not from the text of the source: active = GI50 up to about 1.1 µM and inactive = higher.

Tests used:
Experiment in all cases: NCI anticancer screen, dose series, 48 h
SK-MEL-28 = tested on: SK-MEL-28
RXF 393 = tested on: RXF 393
HOP-18 = tested on: HOP-18
SF-539 = tested on: SF-539
EKVX = tested on: EKVX
SN12C = tested on: SN12C
SK-OV-3 = tested on: SK-OV-3
OVCAR-3 = tested on: OVCAR-3
ACHN = tested on: ACHN
HCT-15 = tested on: HCT-15
M19-MEL = tested on: M19-MEL
U-251 = tested on: U-251
A498 = tested on: A498
786-0 = tested on: 786-0
IGROV-1 = tested on: IGROV-1
COLO 205 = tested on: COLO 205
NCI-H460 = tested on: NCI-H460
OVCAR-4 = tested on: OVCAR-4
UO-31 = tested on: UO-31
HL-60 = tested on: HL-60
HOP-92 = tested on: HOP-92
HCC 2998 = tested on: HCC 2998
XF498 = tested on: XF498
SNB-19 = tested on: SNB-19
RPMI-8226 = tested on: RPMI-8226
UACC-62 = tested on: UACC-62
HOP-62 = tested on: HOP-62
SW-620 = tested on: SW-620
SNB-75 = tested on: SNB-75
SK-MEL-2 = tested on: SK-MEL-2
UACC-257 = tested on: UACC-257
K562 = tested on: K562
KM-20L2 = tested on: KM-20L2
DMS-273 = tested on: DMS-273
OVCAR-8 = tested on: OVCAR-8
SR = tested on: SR
CAKI-1 = tested on: CAKI-1
DMS-114 = tested on: DMS-114
HT-29 = tested on: HT-29
SF-295 = tested on: SF-295
HCT-116 = tested on: HCT-116
MOLT-4 = tested on: MOLT-4
NCI-H23 = tested on: NCI-H23
M14 = tested on: M14
DLD-1 = tested on: DLD-1
SNB-78 = tested on: SNB-78
A549 = tested on: A549
CCRF-CEM = tested on: CCRF-CEM
KM12 = tested on: KM12
LXFL 529 = tested on: LXFL 529
SK-MEL-5 = tested on: SK-MEL-5
LOX IMVI = tested on: LOX IMVI
NCI-H522 = tested on: NCI-H522
NCI-H226 = tested on: NCI-H226
TK-10 = tested on: TK-10
OVCAR-5 = tested on: OVCAR-5
SF-268 = tested on: SF-268
Malme-3M = tested on: Malme-3M

## COc1cc(OC)c([C@@H]2OC(=O)C3C2C(=O)O[C@H]3c2cc(OC)c(OC)cc2OC)cc1OC (some centres not stated)
SK-MEL-28
  GI50: > 100 µM (inactive)
RXF 393
  GI50: > 100 µM (inactive)
HOP-18
  GI50: > 100 µM (inactive)
SF-539
  GI50: > 100 µM (inactive)
EKVX
  GI50: > 100 µM (inactive)
SN12C
  GI50: > 100 µM (inactive)
SK-OV-3
  GI50: > 100 µM (inactive)
OVCAR-3
  GI50: > 100 µM (inactive)
ACHN
  GI50: > 100 µM (inactive)
HCT-15
  GI50: > 100 µM
M19-MEL
  GI50: 70.1 µM (inactive)
U-251
  GI50: > 100 µM (inactive)
A498
  GI50: > 100 µM (inactive)
786-0
  GI50: > 100 µM (inactive)
IGROV-1
  GI50: > 10 µM (inactive)
COLO 205
  GI50: > 100 µM (inactive)
NCI-H460
  GI50: > 100 µM (inactive)
OVCAR-4
  GI50: 45.4 µM (inactive)
UO-31
  GI50: > 100 µM (inactive)
HL-60
  GI50: 88.9 µM (inactive)
HOP-92
  GI50: > 10 µM (inactive)
HCC 2998
  GI50: > 100 µM (inactive)
XF498
  GI50: > 100 µM (inactive)
SNB-19
  GI50: > 100 µM (inactive)
RPMI-8226
  GI50: > 100 µM (inactive)
UACC-62
  GI50: > 100 µM (inactive)
HOP-62
  GI50: > 100 µM (inactive)
SW-620
  GI50: > 10 µM (inactive)
SNB-75
  GI50: > 100 µM (inactive)
SK-MEL-2
  GI50: > 100 µM (inactive)
UACC-257
  GI50: > 100 µM (inactive)
K562
  GI50: > 100 µM (inactive)
KM-20L2
  GI50: > 100 µM (inactive)
DMS-273
  GI50: > 100 µM (inactive)
OVCAR-8
  GI50: > 100 µM (inactive)
SR
  GI50: 51.6 µM (inactive)
CAKI-1
  GI50: > 100 µM (inactive)
DMS-114
  GI50: 72.4 µM (inactive)
HT-29
  GI50: > 100 µM (inactive)
SF-295
  GI50: > 100 µM (inactive)
HCT-116
  GI50: > 100 µM (inactive)
MOLT-4
  GI50: > 100 µM (inactive)
NCI-H23
  GI50: > 100 µM (inactive)
M14
  GI50: > 100 µM (inactive)
DLD-1
  GI50: > 100 µM (inactive)
SNB-78
  GI50: > 100 µM (inactive)
A549
  GI50: > 100 µM (inactive)
CCRF-CEM
  GI50: > 100 µM (inactive)
KM12
  GI50: > 100 µM (inactive)
LXFL 529
  GI50: > 100 µM (inactive)

## NC(=S)N/N=C(/CCN1CCCC1)CC(C1=C(O)C2=CCCCC2OC1=O)c1ccccc1 (configuration not stated)
SK-MEL-5
  GI50: > 100 µM (inactive)
LOX IMVI
  GI50: > 100 µM (inactive)
RXF 393
  GI50: > 100 µM (inactive)
HOP-18
  GI50: > 100 µM (inactive)
SF-539
  GI50: > 100 µM (inactive)
EKVX
  GI50: > 100 µM (inactive)
SN12C
  GI50: > 100 µM (inactive)
SK-OV-3
  GI50: > 100 µM (inactive)
OVCAR-3
  GI50: > 100 µM (inactive)
ACHN
  GI50: > 100 µM (inactive)
HCT-15
  GI50: > 100 µM
M19-MEL
  GI50: > 100 µM (inactive)
U-251
  GI50: > 100 µM (inactive)
A498
  GI50: > 100 µM (inactive)
786-0
  GI50: > 100 µM (inactive)
IGROV-1
  GI50: > 100 µM (inactive)
COLO 205
  GI50: 54.1 µM (inactive)
NCI-H460
  GI50: > 100 µM (inactive)
OVCAR-4
  GI50: > 100 µM (inactive)
UO-31
  GI50: > 100 µM (inactive)
HL-60
  GI50: > 100 µM (inactive)
HOP-92
  GI50: 32.3 µM (inactive)
HCC 2998
  GI50: > 100 µM (inactive)
XF498
  GI50: > 100 µM (inactive)
NCI-H522
  GI50: > 100 µM (inactive)
NCI-H226
  GI50: > 100 µM (inactive)
SNB-19
  GI50: > 100 µM (inactive)
RPMI-8226
  GI50: > 100 µM (inactive)
UACC-62
  GI50: > 100 µM (inactive)
HOP-62
  GI50: > 100 µM (inactive)
TK-10
  GI50: > 100 µM (inactive)
SW-620
  GI50: 37.8 µM (inactive)
OVCAR-5
  GI50: > 100 µM (inactive)
SNB-75
  GI50: > 100 µM (inactive)
SK-MEL-2
  GI50: > 100 µM (inactive)
UACC-257
  GI50: > 100 µM (inactive)
K562
  GI50: > 100 µM (inactive)
KM-20L2
  GI50: > 100 µM (inactive)
OVCAR-8
  GI50: > 100 µM (inactive)
SR
  GI50: 70 µM (inactive)
CAKI-1
  GI50: > 100 µM (inactive)
HT-29
  GI50: > 100 µM (inactive)
SF-295
  GI50: > 100 µM (inactive)
HCT-116
  GI50: > 100 µM (inactive)
NCI-H23
  GI50: > 100 µM (inactive)
M14
  GI50: > 100 µM (inactive)
DLD-1
  GI50: > 100 µM (inactive)
SF-268
  GI50: > 100 µM (inactive)
SNB-78
  GI50: > 100 µM (inactive)
A549
  GI50: > 100 µM (inactive)
CCRF-CEM
  GI50: 80 µM (inactive)
KM12
  GI50: > 100 µM (inactive)
Malme-3M
  GI50: > 100 µM (inactive)
LXFL 529
  GI50: > 100 µM (inactive)

## N=C(N)NS(=O)(=O)c1ccc(NC(=O)c2cccc3cc4ccccc4nc23)cc1
SK-MEL-5
  GI50: > 100 µM (inactive)
SK-MEL-28
  GI50: > 100 µM (inactive)
LOX IMVI
  GI50: 51.5 µM (inactive)
RXF 393
  GI50: > 100 µM (inactive)
SF-539
  GI50: 25.5 µM (inactive)
EKVX
  GI50: > 100 µM (inactive)
SN12C
  GI50: > 100 µM (inactive)
SK-OV-3
  GI50: > 100 µM (inactive)
OVCAR-3
  GI50: > 100 µM (inactive)
ACHN
  GI50: 93.8 µM (inactive)
HCT-15
  GI50: > 100 µM
M19-MEL
  GI50: > 100 µM (inactive)
U-251
  GI50: 87.7 µM (inactive)
A498
  GI50: > 100 µM (inactive)
786-0
  GI50: 67.9 µM (inactive)
IGROV-1
  GI50: > 100 µM (inactive)
COLO 205
  GI50: > 100 µM (inactive)
NCI-H460
  GI50: > 100 µM (inactive)
OVCAR-4
  GI50: 28 µM (inactive)
UO-31
  GI50: > 100 µM (inactive)
XF498
  GI50: 99.5 µM (inactive)
NCI-H522
  GI50: 13.5 µM (inactive)
NCI-H226
  GI50: 9.75 µM (inactive)
SNB-19
  GI50: 9.79 µM (inactive)
RPMI-8226
  GI50: > 100 µM (inactive)
UACC-62
  GI50: > 100 µM (inactive)
HOP-62
  GI50: 94.2 µM (inactive)
TK-10
  GI50: > 100 µM (inactive)
SW-620
  GI50: 66.8 µM (inactive)
OVCAR-5
  GI50: > 100 µM (inactive)
SNB-75
  GI50: 95.1 µM (inactive)
SK-MEL-2
  GI50: > 100 µM (inactive)
UACC-257
  GI50: > 100 µM (inactive)
K562
  GI50: 53 µM (inactive)
KM-20L2
  GI50: > 100 µM (inactive)
DMS-273
  GI50: > 100 µM (inactive)
OVCAR-8
  GI50: 14.5 µM (inactive)
CAKI-1
  GI50: > 100 µM (inactive)
DMS-114
  GI50: 97.5 µM (inactive)
HT-29
  GI50: > 100 µM (inactive)
SF-295
  GI50: > 100 µM (inactive)
HCT-116
  GI50: 19.3 µM (inactive)
MOLT-4
  GI50: 5.55 µM (inactive)
NCI-H23
  GI50: > 100 µM (inactive)
M14
  GI50: > 100 µM (inactive)
DLD-1
  GI50: > 100 µM (inactive)
SF-268
  GI50: 88.5 µM (inactive)
SNB-78
  GI50: 40.6 µM (inactive)
A549
  GI50: > 100 µM (inactive)
CCRF-CEM
  GI50: 6.56 µM (inactive)
KM12
  GI50: 30.8 µM (inactive)
Malme-3M
  GI50: > 100 µM (inactive)
LXFL 529
  GI50: 21.7 µM (inactive)
